Values joined by “and” are separate entries in the source; they are usually repeats but may differ in a detail not shown here. Equal values may be shown once.

The source of these data is publication PMC11303563 (Communications Medicine, 2024).

The nature of data set [1]: In vitro blood-brain barrier permeability assay (BBB kit RBT-24H). It counts as in vitro ADME, rat.
Protocol: Therefore, we tested BBB transparency in vitro using the BBB kit RBT-24H (PharmaCo-Cell)[35]. […] Blood-brain barrier permeability assay The blood-brain barrier (BBB) transparency of TH analogs was assessed in vitro using RBT-24H (PharmaCo-Cell)[5] according to the manufacturer 's protocol. […] After 30 min, the assay buffer in the wells mimicking the abluminal side was collected, and the concentration of the compounds was measured using liquid chromatography-mass spectrometry (LC-MS). […] These tips were preconditioned with 20 μL of acetonitrile and 20 μL of 0.1% TFA in purified water. 100 μL of the samples were loaded onto the preconditioned tips, washed with 200 μL of DW, and then eluted with 10 μL of acetonitrile. Triazine (1% vol/vol) was added to the eluent as an internal standard. […] 3 μm; Imtakt, Kyoto, Japan). All the experiments were performed using an Ultimate 3000 UHPLC system coupled with a Q Exactive Plus Orbitrap mass spectrometer (Thermo Fisher Scientific). […] Data were shown as mean ± standard deviation (n=3).
Another data set has as its system THRβ. To be noted: cited from earlier work.
For data set [2], the system named is high-fat diet (HFD)-induced obesity model mice. The data set can be described thus: Body weight of high-fat diet-induced obesity model mice. The format is in vivo, C57BL/6J mice. Also on record: Body weight, Mean Diff. ND vs. treated: unit not given here. To be noted: for Body weight, 95.00% CI of diff. ND vs. treated / Body weight, Mean Diff. ND vs. treated: ND group as comparator; for Body weight, 95.00% CI of diff. ND vs. treated / Body weight, Mean Diff. ND vs. treated / Body weight, 95.00% CI of diff. Vehicle vs. treated / Body weight, Mean Diff. Vehicle vs. treated: Tukey's multiple comparisons test; for Body weight, Mean Diff. Vehicle vs. treated / Body weight, group mean (Fig. 3a) / Body weight, individual mice (Fig. 3a): in g (unit assumed); for Body weight, group mean (Fig. 3a): n 10. On the procedure:
The injection was given 6 h after light on. Food consumption and body weights were measured weekly. Food and water were provided to the animals ad libitum. The animals were treated according to the guidelines of Nagoya University, and all experimental procedures were approved by the Animal Experiment Committee of Nagoya University (A210715-003).
(§1) Epididymal adipose tissue was weighed.
(§2) Fig. 3 Effects of intraperitoneal injection of TH analogs on body weight and deposition of visceral fat. […] After three weeks of injection, body weight (a), and weight of the epididymal adipose tissue (b) were measured.

Data set [3] shares this test system. The data set can be described thus: Weight of epididymal adipose tissue (visceral fat) in HFD mice. The format is in vivo, C57BL/6J mice. To be noted: for Fig. 3b (weight of epididymal adipose tissue), group mean (Mean 2): n=10; for Fig. 3b (weight of epididymal adipose tissue), group mean (Mean 2) / Fig. 3b (weight of epididymal adipose tissue), Mean Diff. ND vs. treatment (Tukey) / Fig. 3b (weight of epididymal adipose tissue), Mean Diff. Vehicle vs. treatment (Tukey) / Epididymal adipose weight, individual mice (Fig. 3b): in mg (unit assumed); for Fig. 3b (weight of epididymal adipose tissue), Mean Diff. ND vs. treatment (Tukey): ND minus treated; for Fig. 3b (weight of epididymal adipose tissue), Mean Diff. Vehicle vs. treatment (Tukey): Vehicle minus treated. On the procedure:
as §1, §2

The test system is the same in data set [4]. Put plainly: Serum lipid analysis (total cholesterol, triglycerides) in HFD mice. It counts as in vivo, C57BL/6J mice. Also on record: Serum TC (Fig. 4a), individual mouse values / Serum TG (Fig. 4b), individual mouse values / Serum TC (Fig. 4a), Mean Diff. ND vs. treatment (Tukey) / Serum TC (Fig. 4a), Mean Diff. Vehicle vs. treatment (Tukey) / Serum TC (Fig. 4a), group mean (Mean 2) / Mean Diff., ND vs. treated (Fig. 4b) / Mean Diff., Vehicle vs. treated (Fig. 4b) / Mean (Fig. 4b): unit not given here. As to conditions: for Serum TC (Fig. 4a), group mean (Mean 2) / Mean (Fig. 4b): n=10; for Serum TC (Fig. 4a), Mean Diff. ND vs. treatment (Tukey): ND minus treated; for Serum TC (Fig. 4a), Mean Diff. Vehicle vs. treatment (Tukey): Vehicle minus treated; for Mean Diff., ND vs. treated (Fig. 4b) / Mean Diff., Vehicle vs. treated (Fig. 4b): Tukey's multiple comparisons test; for Mean (Fig. 4b): group mean. On the procedure:
Fig. 4 Effects of TH analogs on the accumulation of lipids in mice. […] After 3 weeks of injection, serum and liver tissues were collected, and the amount of serum cholesterol (a), serum triglycerides (b), liver cholesterol (c), liver triglycerides (d), and liver total lipids (e) were measured.

For data set [5], the system named is THR-regulated genes and lipid metabolism-related genes in the liver.
Where [6] appears, read: HFD mice, i.p., dose not given (0.1 or 1 µmol/kg day), 3 weeks.
[7] abbreviates: HFD mice, 1 μmol/kg day, RT-qPCR, reference gene Rps18.
Setting [8] is: liver gene expression, 1µmol dose group vs. Vehicle.

`Cn1c(=O)c2c(ncn2C)n(C)c1=O` [Caffeine] registered an Abluminal concentration in data set [1] (10 µM on luminal side, 30 min, mean ± standard deviation (n=3)) of 0.504 ± 0.0551 µM. In data set [1] (rat, 10 μM on luminal side, read-out: apparent permeability (Papp)), the apparent permeability coefficient (Papp) at 30 min, 10 µM turned out to be 76.4 ± 8.35 ×10⁻⁶ cm/s.
For `Cc1cc(OCC(=O)O)cc(C)c1Cc1ccc(O)c(Cc2ccccc2)c1` [GC-24], the “selectivity for THRβ against THRα compared with GC-1” value in the data set on THRβ is on record as “ten-fold greater selectivity”.
`N[C@@H](Cc1cc(I)c(Oc2ccc(O)c(I)c2)c(I)c1)C(=O)O` [T3, triiodothyronine]: in data set [2] (0.1 µmol dose group), the “Body weight, 95.00% CI of diff. ND vs. treated” value was -15.17 to -6.458; the “Body weight, Mean Diff. ND vs. treated” value is listed as -10.81; the “Body weight, 95.00% CI of diff. Vehicle vs. treated” value is listed as -0.6376 to 7.800; the “Body weight, Mean Diff. Vehicle vs. treated” value worked out at 3.581. Also, in data set [2] (1 µmol dose group), the “Body weight, 95.00% CI of diff. ND vs. treated” value is listed as -10.58 to -1.870; the “Body weight, Mean Diff. ND vs. treated” value is -6.225; the “Body weight, 95.00% CI of diff. Vehicle vs. treated” value lay in the range of 3.950 to 12.39; the “Body weight, Mean Diff. Vehicle vs. treated” value turned out to be 8.169. Besides, in data set [2] (HFD mice, 0.1 µmol dose group), the “Body weight, group mean (Fig. 3a)” value turned out to be 39.33; the “Body weight, individual mice (Fig. 3a)” value is 37.99 and 36.19 and 32.32 and 43.27 and 39.51 and 44.21 and 39.97 and 39.21 and 40.58 and 40.07. Also, in data set [2] (HFD mice, 1 µmol dose group), the “Body weight, group mean (Fig. 3a)” value is recorded as 34.74; the “Body weight, individual mice (Fig. 3a)” value was 29.82 and 33.07 and 30.29 and 38.87 and 37.72 and 35.76 and 37.12 and 36.01 and 34.61 and 34.17. Besides, the “body weight vs vehicle (in words)” value in data set [2] (HFD mice, i.p. 0.1 µmol/kg day, 3 weeks) is on record as “did not significantly reduce body weight”. In data set [2] (HFD mice, i.p. 1 µmol/kg day, 3 weeks), the “decrease of body weight compared to vehicle” value is reported as ~ 20%. Also, the “Fig. 3b (weight of epididymal adipose tissue), group mean (Mean 2)” value in data set [3] (0.1 µmol, HFD mice) amounted to 1763. Further, in data set [3] (0.1 µmol), the “Fig. 3b (weight of epididymal adipose tissue), Mean Diff. ND vs. treatment (Tukey)” value is -1079 and the “Fig. 3b (weight of epididymal adipose tissue), Mean Diff. Vehicle vs. treatment (Tukey)” value came to 1095. For the same compound, the “Fig. 3b (weight of epididymal adipose tissue), group mean (Mean 2)” value in data set [3] (1 µmol, HFD mice) came to 1015. Further, in data set [3] (1 µmol), the “Fig. 3b (weight of epididymal adipose tissue), Mean Diff. ND vs. treatment (Tukey)” value is given as -331.6 and the “Fig. 3b (weight of epididymal adipose tissue), Mean Diff. Vehicle vs. treatment (Tukey)” value is given as 1843. In addition, in data set [3] (HFD mice, 0.1 µmol dose group), the “Epididymal adipose weight, individual mice (Fig. 3b)” value is 1857.6 and 1829.3 and 1453.2 and 1516.6 and 740.6 and 1685.1 and 1862.2 and 1976.4 and 2365.6 and 2339.7. Moreover, the “Epididymal adipose weight, individual mice (Fig. 3b)” value in data set [3] (HFD mice, 1 µmol dose group) was 781.7 and 1090.4 and 983.4 and 966.1 and 975.7 and 1007.4 and 1167.4 and 1184.7 and 1023.2 and 969.5. In addition, in data set [3] (setting [6]), the “weight of the epididymal adipose tissue vs vehicle” value is given as “decreased significantly”. In addition, in data set [4] (0.1 µmol, HFD mice), the “Serum TC (Fig. 4a), individual mouse values” was 158.333 and 124.25 and 113.833 and 130.625 and 129.792 and 168.458 and 110 and 105.208 and 104.375 and 153.458; the “Serum TG (Fig. 4b), individual mouse values” was 79.667 and 70.5 and 70.583 and 116.333 and 98 and 97.167 and 90.5 and 123.833 and 87.167 and 118.833; the “Serum TC (Fig. 4a), group mean (Mean 2)” value is 129.8; the “Mean (Fig. 4b)” value worked out at 95.26. In data set [4] (0.1 µmol), the “Serum TC (Fig. 4a), Mean Diff. ND vs. treatment (Tukey)” value came to 49.59 and the “Serum TC (Fig. 4a), Mean Diff. Vehicle vs. treatment (Tukey)” value is listed as 120.2. In data set [4] (1 µmol, HFD mice), the “Serum TC (Fig. 4a), individual mouse values” is 78.333 and 92.5833 and 95.917 and 94.792 and 93.958 and 110.125 and 81.667 and 92.708 and 91.875 and 83.875; the “Serum TG (Fig. 4b), individual mouse values” is 109.75 and 118.917 and 137.25 and 189.75 and 144.75 and 162.25 and 110.583 and 122.25 and 108.917 and 100.583; the “Serum TC (Fig. 4a), group mean (Mean 2)” value was found to be 91.58; the “Mean (Fig. 4b)” value was 130.5. Besides, in data set [4] (1 µmol), the “Serum TC (Fig. 4a), Mean Diff. ND vs. treatment (Tukey)” value was found to be 87.84 and the “Serum TC (Fig. 4a), Mean Diff. Vehicle vs. treatment (Tukey)” value came out at 158.5. Moreover, in data set [4] (ND minus 0.1 µmol group), the “Mean Diff., ND vs. treated (Fig. 4b)” value amounted to 51.51. Also, the “Mean Diff., ND vs. treated (Fig. 4b)” value in data set [4] (ND minus 1 µmol group) is listed as 16.27. The “Mean Diff., Vehicle vs. treated (Fig. 4b)” value in data set [4] (Vehicle minus 0.1 µmol group) is listed as 20.52. For the same compound, the “Mean Diff., Vehicle vs. treated (Fig. 4b)” value in data set [4] (Vehicle minus 1 µmol group) is recorded as -14.72. Also, the “serum triglyceride level vs vehicle” value in data set [4] (setting [6]) is “no significant difference”. For the same compound, in data set [5] (1µmol, one value per animal), the “Dio1 expression in the liver, individual animal values” is 3.359 and 3.177 and 2.594 and 3.891 and 4.465 and 3.761 and 2.009 and 5.092 and 4.047 and 3.355; the “Ldlr expression in the liver, individual animal values” was 0.07802 and 0.2909 and 0.1661 and 1.188 and 1.197 and 0.8436 and 2.271 and 0.5624 and 0.08829 and 0.1717; the “Me1 expression in the liver, individual animal values” is 1.618 and 1.709 and 1.627 and 3.524 and 2.735 and 3.173 and 4.935 and 5.075 and 3.984 and 2.564; the “Pnpla2 expression in the liver, individual animal values” is 0.3078 and 2.165 and 2.21 and 1.997 and 2.671 and 3.066 and 2.607 and 3.3336 and 0.6308 and 1.108. Further, in data set [5] (1µmol, one value per animal), the “Srebp1c expression in the liver, individual animal values” is 0.06015 and 0.2255 and 0.1838 and 0.1704 and 0.1322 and 0.09864 and 0.3225 and 0.5342 and 0.08549 and 0.1455; the “Thrsp expression in the liver, individual animal values” was 1.539 and 1.364 and 0.6114 and 1.153 and 1.565 and 1.274 and 1.191 and 0.8905 and 1.332 and 1.012. Further, in data set [5] (setting [7]), the “liver expression of Dio1 vs vehicle” value was “significantly upregulated”, the “liver expression of Ldlr vs vehicle” value is recorded as “not significantly different”, the “liver expression of Me1 vs vehicle” value is on record as “significantly upregulated” and the “liver expression of Srebp1c vs vehicle” value is “significantly lower”. Also, in data set [5] (setting [7]), the “liver expression of Thrsp vs vehicle” value was “no significant difference”. In addition, in data set [5] (setting [8]), the “Pnpla2, Dunn's multiple comparisons test, Mean rank diff. (Vehicle vs. compound)” value was -12.5 and the “Srebp1c, Dunn's multiple comparisons test, Mean rank diff. (Vehicle vs. compound)” value worked out at 17.87. The “Pnpla2, Mean rank of treatment group (Mean rank 2)” value in data set [5] (liver gene expression, 1µmol dose group, Vehicle mean rank 8) is 20.5. Also, in data set [5] (liver gene expression, 1µmol dose group, Vehicle mean rank […]), the “Srebp1c, Mean rank of treatment group (Mean rank 2)” value worked out at 15.8.

Usually Papp stands for a coefficient for how fast a substance crosses the barrier.
